From patent publication US20120244106A1 (SANOFI-AVENTIS U.S. LLC, priority 2009, published 2012)

What was measured:
Type in all cases: in vivo, humans
[1] = test system: relapsing-remitting multiple sclerosis patients; test: Safety and tolerability (TEAE, laboratory data), 24-week study; settings: 24 weeks
Description: (§1) A placebo-controlled, double-blinded, randomized study was conducted in relapsing-remitting multiple sclerosis patients who were concurrently on a stable dose of glatiramer acetate. The dose of glatiramer acetate was 20 mg subcutaneously daily.
Around 40 patients were treated in each treatment group (placebo: 41, 7 mg: 42, and 14 mg: 40).
(§2) Safety was evaluated with reported Treatment Emergent Adverse Events (TEAE), physical examination (every 8-weeks), laboratory data (e.g. Liver Function Test, every 2 weeks), vital signs (every 8-weeks), ECG and abdominal ultrasound (at baseline and at 24-weeks). Brain MRI activity, including T1-gadolinium (T1-Gd) lesions with central reading was recorded every 8-weeks, EDSS scores were recorded at baseline and at 24-weeks, Fatigue impact scale was assessed every 8-weeks, and relapses were assessed at every clinical visit.

[2] = test system: relapsing-remitting multiple sclerosis patients; test: Brain MRI Gd-enhancing T1-lesions (number and volume), 24-week placebo-controlled add-on study, ITT population; settings: 24 weeks
Description: as §1
(§3) Around 40 patients were treated in each treatment group (placebo: 41, 7 mg: 42, and 14 mg: 40). […] The mean age of the study population was 41.4 years. […] The base line Expanded Disability Status Scale (EDSS) score was similar between treatment groups (around 2.5). A few more patients had Magnetic Resonance Image (MRI) disease activity (at least one T1-Gd lesion) at baseline in 7 mg group (28.6%) than in placebo (14.6%) and 14 mg (12.8%) groups.
as §2

[3] = test system: relapsing-remitting multiple sclerosis patients; test: Confirmed MS relapses / annualized relapse rate, 48-week treatment period, ITT population; settings: 48 weeks
Description: Safety was evaluated from TEAE, physical exam (every 6 weeks), laboratory data (every 6 weeks), vital signs (every 6 weeks), ECG (at the close-out visit), pancreatic ultrasound (at the close-out visit) and brain MRI (at the close-out visit). Relapses were recorded and EDSS was performed every 6-weeks.

[4] = test system: relapsing-remitting multiple sclerosis patients; test: Confirmed MS relapses / annualized relapse rate, 24-week study, ITT population; settings: 24 weeks
Description: as §1, §3, §2
Twenty-nine patients experienced a total of 30 confirmed relapses. Two relapses occurred after treatment discontinuation (1 day in one placebo patient, 41 days in one 7 mg patient). Therefore, 28 confirmed relapses occurring in 27 patients were included in the analysis (Table 3).

[5] = test system: relapsing-remitting multiple sclerosis patients; test: Safety and tolerability (TEAE, laboratory data), 48-week treatment period; settings: 48 weeks
Description: (§4) Design/Methods: 96 of the 123 patients that were randomized to study treatment ([…]) for the first 6-months in Example 1 completed this 6-month period and accepted to continue medication for an additional 6-month period (placebo: 37, 7 mg: 30, 14 mg: 29). Of the 96 treated patients, 5 patients prematurely withdrew from the study treatment (placebo: 3, 7 mg: 0, and 14 mg: 2). Safety was evaluated from TEAE, physical exam (every 6 weeks), laboratory data (every 6 weeks), vital signs (every 6 weeks), ECG (at the close-out visit), pancreatic ultrasound (at the close-out visit) and brain MRI (at the close-out visit). Relapses were recorded and EDSS was performed every 6-weeks. Annualized relapse rates (ARR) were analyzed by a Poisson model with the total number of confirmed relapses onset between randomization date and last dose date as the response variable, treatment and region as covariates, and log-transformed standardized study duration as an offset variable. The following results report the entire 48-week double-blind treatment period.

[6] = test system: relapsing-remitting multiple sclerosis patients; test: Brain MRI Gd-enhancing T1-lesions (number and volume), entire 48-week double-blind treatment period, ITT population
Description: as §4
One patient (14 mg group) had one day participation in the study and had no valid baseline MRI data. Two other patients, one in 7 mg and one in 14 mg, prematurely discontinued the study and no post baseline MRI was collected.

[7] = 7 mg or 14 mg teriflunomide + GA
[8] = 7 mg teriflunomide + GA 20 mg sc daily
[9] = 14 mg teriflunomide + GA 20 mg sc daily
[10] = the two teriflunomide groups (7 mg, 14 mg) + GA vs placebo + GA
[11] = 14 mg teriflunomide + GA 20 mg sc daily (group not given)
[12] = 7 mg teriflunomide + GA 20 mg sc daily, 48 weeks

SMILES: C/C(O)=C(\C#N)C(=O)Nc1ccc(C(F)(F)F)cc1 [teriflunomide, (Z)-2-cyano-3-hydroxy-but-2-enoic acid-(4′-trifluoromethylphenyl)-amide]
- Concurrent increase in ALT>3ULN and in total bilirubin>2ULN [1, 7]: No case
- Deaths [1, 7]: No patients died
- Number of patients with TEAE leading to treatment discontinuation [1, 8]: 3
- Patients with ALT greater than 3ULN [1, 8]: 0
- Patients with TEAE leading to treatment discontinuation (%) [1, 8]: 7.1%
- Proportion of patients with TEAE potentially related to immunosuppression [1, 8]: 43%
- Proportion of patients with a TEAE related to hepatic disorder [1, 8]: 9.5%
- TEAE incidence rate [1, 8]: 83.3%
- Number of patients with TEAE leading to treatment discontinuation [1, 9]: 4
- Patients with ALT greater than 3ULN [1, 9]: 1
- Patients with TEAE leading to treatment discontinuation (%) [1, 9]: 10%
- Proportion of patients with TEAE potentially related to immunosuppression [1, 9]: 38%
- Proportion of patients with a TEAE related to hepatic disorder [1, 9]: 12.2%
- TEAE incidence rate [1, 9]: 87.5%
- Tolerability and safety ([1]; each teriflunomide dose (7 mg, 14 mg) combined with GA): acceptable
- Proportion of patients with occurrence of decreased WBC count and neutrophils (PCSA) [1, 10]: slightly higher
- Patients with >=1 Gd-enhancing T1-lesions post-baseline: No (% of patients) [2, 8]: 61.0%
- Unadjusted Gd-enhancing T1-lesions per scan [2, 8]: 0.321
- Unadjusted Gd-enhancing T1-lesions per scan [2, 9]: 0.262
- Disease control as evaluated by T1-Gd MRI activity ([2]; teriflunomide added to stable-dosed GA): improved disease control beyond glatiramer acetate alone
- Adjusted annualized relapse rate, estimate (Poisson model) [3, 8]: 0.262
- Number of patients with >=1 relapses: Yes (number of patients) [3, 8]: 8
- Unadjusted annualized relapses rate [3, 8]: 0.281 per patient year
- Adjusted annualized relapse rate, estimate (Poisson model) [3, 9]: 0.497
- Number of patients with >=1 relapses: Yes (number of patients) [3, 9]: 15
- Unadjusted annualized relapses rate [3, 9]: 0.546 per patient year
- Adjusted annualized relapse rate, estimate (Poisson model) [4, 8]: 0.311
- Total number of relapses [4, 8]: 6
- Unadjusted annualized relapses rate [4, 8]: 0.337 per patient year
- Adjusted annualized relapse rate, estimate (Poisson model) [4, 9]: 0.647
- Total number of relapses [4, 9]: 12
- Unadjusted annualized relapses rate [4, 9]: 0.710 per patient year
- Number of patients experiencing a serious TEAE [5, 8]: 5
- Number of patients with TEAE leading to treatment discontinuation [5, 8]: 3
- Patients experiencing a serious TEAE (%) [5, 8]: 11.9%
- Patients who experienced a TEAE related to hypertension (number) [5, 8]: 2
- Patients with ALT greater than 3×ULN [5, 8]: 0
- Patients with TEAE leading to treatment discontinuation (%) [5, 8]: 7.1%
- Proportion of patients experiencing a TEAE related to hypersensitivity [5, 8]: 14.3%
- Proportion of patients with a TEAE potentially related to immunosuppression (all infections and hematological disorders) [5, 8]: 52.4%
- Proportion of patients with a TEAE related to hepatic disorder [5, 8]: 9.5%
- TEAE incidence rate [5, 8]: 95.2%
- Number of patients experiencing a serious TEAE [5, 11]: 2
- Patients experiencing a serious TEAE (%) [5, 11]: 4.9%
- Number of patients with TEAE leading to treatment discontinuation [5, 9]: 5
- Patients who experienced a TEAE related to hypertension (number) [5, 9]: 2
- Patients with ALT greater than 3×ULN [5, 9]: 1
- Patients with TEAE leading to treatment discontinuation (%) [5, 9]: 12.2%
- Proportion of patients experiencing a TEAE related to hypersensitivity [5, 9]: 24.4%
- Proportion of patients with a TEAE potentially related to immunosuppression (all infections and hematological disorders) [5, 9]: 51.2%
- Proportion of patients with a TEAE related to hepatic disorder [5, 9]: 12.2%
- TEAE incidence rate [5, 9]: 92.7%
- Tolerability and safety ([5]; each dose of teriflunomide (7 mg, 14 mg) combined with GA): acceptable and manageable
- Proportions of patients with occurrence of decreased WBC and neutrophil counts (PCSA) [5, 10]: slightly higher
- Patients with >=1 Gd-enhancing T1-lesions post-baseline: No (% of patients) [6, 12]: 56.1%
- Unadjusted Gd-enhancing T1-lesions per scan [6, 12]: 0.317
- Unadjusted Gd-enhancing T1-lesions per scan ([6]; 14 mg teriflunomide + GA 20 mg sc daily, 48 weeks): 0.233
- Controlling disease activity as measured by T1-Gd lesions ([6]; teriflunomide added to GA, one-year study): trend to benefit
